This note sets out measurements from publication PMC11766569, “Novel Insights into the Nobilamide Family from a Deep-Sea Bacillus: Chemical Diversity, Biosynthesis and Antimicrobial Activity Towards Multidrug-Resistant Bacteria” (Marine Drugs, 2025).

For assay [1], the system named is S. aureus methicillin-resistant. Put plainly: microbe, parasite or virus in culture. Type of assay: cell-based, Staphylococcus aureus. Here is the method: (§1) To evaluate the antimicrobial potential of all samples, the MICs for E. coli ATCC® 10536™, S. aureus ATCC® 6538™, S. aureus ATCC® 6538p™, methicillin-resistant S. aureus (MRSA), macrolide-resistant S. aureus ([…]), quinolone-resistant S. aureus (QRSA), vancomycin-resistant S. aureus (VRSA), S. epidermidis RP206 [7], S. xylosus MB 5209 [77] were determined by the liquid inhibition assay. Briefly, the bacterial strains were inoculated in 3 mL of liquid Mueller–Hinton broth (MHB) (HiMedia, Einhausen, Germany) in sterile bacteriological tubes and incubated in agitation at 37 °C until they reached the turbidity of 0.5 McFarland. Different from the remaining pathogens, L. monocytogenes MB 677 [79] was diluted in the Trypticasein soy broth (TSB) medium with an additional 0.6% yeast extract. Finally, serial dilutions of the inoculum were performed to obtain a final bacterial concentration of about 5 × 10^5 CFU/mL. Then, 4 µL of each sample was added into a 96-well microtiter plate containing 200 µL of MH medium. After being serially diluted using MH medium, 100 µL of bacterial suspension was inoculated into the broth (~5 × 10^4 CFU/well) and incubated statically for 18 h at 37 °C. DMSO was used as a control to determine the effect of solvent on cell growth. Vancomycin, erythromycin, and ampicillin were used as positive controls.

Assay [2] concerns S. aureus macrolide-resistant. Put plainly: microbe, parasite or virus in culture. In kind it is cell-based, Staphylococcus aureus. The method, then: as §1
For the next assay, the system named is S. aureus 6538p. Put plainly: microbe, parasite or virus in culture. In kind it is cell-based, Staphylococcus aureus. Here is the method:
as §1

In assay [3] the test system is S. aureus quinolone-resistant. Put plainly: microbe, parasite or virus in culture. In kind it is cell-based, Staphylococcus aureus. The method, then: as §1
For the next assay, the system named is S. aureus 6538. Put plainly: microbe, parasite or virus in culture. In kind it is cell-based, Staphylococcus aureus. The method, then: as §1
A further assay has as its system S. xilosus MB5209. Put plainly: microbe, parasite or virus in culture. Type of assay: cell-based, S. xylosus. The method, then: as §1
Another assay has as its system L. monocytogenes 677. Put plainly: microbe, parasite or virus in culture. In kind it is cell-based, Listeria monocytogenes. The method, then: as §1
Another assay deals with S. epidermidis RP206. In kind it is cell-based. Particulars: RP206, 18 h. Here is the method:
as §1

The test system of the next assay is E. coli ATCC 10536. Put plainly: Liquid inhibition assay (MIC). Particulars: Gram-negative E. coli ATCC 10536. Type of assay: cell-based, Escherichia coli. The method, then:
as §1

For assay [4], the system named is S. aureus vancomycin-resistant. Put plainly: Liquid inhibition assay (MIC). In kind it is cell-based, Staphylococcus aureus. Conditions: vancomycin-resistant S. aureus (VRSA), 96-well, MH medium, ~5 × 10^4 CFU/well, 18 h at 37 °C, absorbance at 600 nm. The method, then: as §1

In brackets after ≈: the same amount, converted by molar mass. Where two headings read alike, the source gives them in different places. Marks after values point to notes of the source that are not given here. Bridge positions count the residues as written; N and C are the ends. Square brackets hold non-standard residues; d marks the D form. Peptide text beside a SMILES is read from it. d(aThr) = C[C@@H](O)[C@@H](N)C(=O)O; Dhb = C/C=C(\N)C(=O)O

Take `CN[C@H](CC(C)C)C(=O)N[C@H]1C(=O)N[C@@H](CC(N)=O)C(=O)N[C@H]2C(=O)N[C@H]3C(=O)N[C@H](C(=O)N[C@H](C(=O)O)c4cc(O)cc(O)c4-c4cc3ccc4O)[C@H](O)c3ccc(c(Cl)c3)Oc3cc2cc(c3O[C@@H]2O[C@H](CO)[C@@H](O)[C@H](O)[C@H]2O[C@H]2C[C@](C)(N)[C@H](O)[C@H](C)O2)Oc2ccc(cc2Cl)[C@H]1O` [Vancomycin]: the MIC in [1] (Staphylococcus aureus, 18 h) is 0.5 µg/mL (≈ 0.345 µM); in assay [1] (methicillin-resistant S. aureus, 96-well, MH medium, ~5 × 10^4 CFU/well, 18 h at 37 °C, absorbance at 600 nm), 0.5 ^a μg/mL; in [2] (Staphylococcus aureus, 18 h), 0.5 µg/mL (≈ 0.345 µM); in assay [2] (macrolide-resistant S. aureus, 96-well, MH medium, ~5 × 10^4 CFU/well, 18 h at 37 °C, absorbance at 600 nm), 0.5 ^a μg/mL; against S. aureus 6538p (S. aureus 6538p, 96-well, MH medium, ~5 × 10^4 CFU/well, 18 h at 37 °C, absorbance at 600 nm, lowest concentration that completely inhibited growth), 1 ^a μg/mL; with S. aureus 6538p (Staphylococcus aureus, 6538P, 18 h), 1 µg/mL (≈ 0.69 µM). For the same compound, the MIC in [3] (Staphylococcus aureus, 18 h) is 0.5 µg/mL (≈ 0.345 µM); in [3] (quinolone-resistant S. aureus, 96-well, MH medium, ~5 × 10^4 CFU/well, 18 h at 37 °C, absorbance at 600 nm), 0.5 ^a μg/mL; in the assay with S. aureus 6538 (S. aureus 6538, 96-well, MH medium, ~5 × 10^4 CFU/well, 18 h at 37 °C, absorbance at 600 nm), 0.5 ^a μg/mL; in the assay with S. aureus 6538 (Staphylococcus aureus, 6538, 18 h), 0.5 µg/mL (≈ 0.345 µM); against S. xilosus MB5209 (S. xilosus MB5209, 96-well, MH medium, ~5 × 10^4 CFU/well, 18 h at 37 °C, absorbance at 600 nm) it was 0.5 ^a μg/mL; against S. xilosus MB5209 (Staphylococcus xylosus, MB5209, 18 h), 0.5 µg/mL (≈ 0.345 µM).
Consider `CC1(C)S[C@@H]2[C@H](NC(=O)[C@H](N)c3ccccc3)C(=O)N2[C@H]1C(=O)O` [ampicillin], for which the MIC was 1 ^c μg/mL with L. monocytogenes 677 (L. monocytogenes 677, diluted in TSB with 0.6% yeast extract, 18 h at 37 °C, absorbance at 600 nm) and 1 µg/mL (≈ 2.86 µM) in the assay with L. monocytogenes 677 (Listeria monocytogenes, 677, 18 h).
Consider `C/C=C1\NC(=O)[C@H](C)NC(=O)[C@H](C(C)C)NC(=O)[C@H](NC(=O)[C@H](Cc2ccccc2)NC(=O)[C@@H](CC(C)C)NC(=O)[C@@H](Cc2ccccc2)NC(C)=O)[C@@H](C)OC1=O` [TL-119] (Ac-[dF][dL]F[d(aThr)]VA[Dhb]; ester 4-C), for which the MIC was 0.24 µg/mL (≈ 0.299 µM) against L. monocytogenes 677 (677, 18 h); 7.8 µg/mL (≈ 9.7 µM) with S. epidermidis RP206; 3.9 µg/mL (≈ 4.85 µM) in assay [1] (methicillin-resistant, 18 h); 1.9 µg/mL (≈ 2.36 µM) in [2] (macrolide-resistant, 18 h); 0.24 µg/mL (≈ 0.299 µM) in the assay on S. aureus 6538p (6538p, 18 h); 0.9 µg/mL (≈ 1.12 µM) in [3] (quinolone-resistant, 18 h). The MIC was found to be 0.24 µg/mL (≈ 0.299 µM) in the assay with S. aureus 6538 (6538, 18 h) and 7.8 µg/mL (≈ 9.7 µM) against S. xilosus MB5209 (18 h). The “antibacterial activity (in words)” value with E. coli ATCC 10536 is “lack of antibacterial activity”.
As for `CC[C@H]1OC(=O)[C@H](C)[C@@H](O[C@H]2C[C@@](C)(OC)[C@@H](O)[C@H](C)O2)[C@H](C)[C@@H](O[C@@H]2O[C@H](C)C[C@H](N(C)C)[C@H]2O)[C@](C)(O)C[C@@H](C)C(=O)[C@H](C)[C@@H](O)[C@]1(C)O` [erythromycin], the MIC in assay [4] (Staphylococcus aureus, read-out: MIC) is 1 µg/mL (≈ 1.36 µM); in assay [4] it was 1 ^b μg/mL.
